According to US9073853B2, “Cycloalkane carboxylic acid derivatives as CXCR3 receptor antagonists” (Sanofi, priority 2011, dated 2015):
Where a name gives a salt, the structure may show the parent alone.

Each molecule was assayed against human CXCR3-A receptor (Homo sapiens (Human), UniProt P49682) (assay: 125I-CXCL10 competition radioligand binding assay). Conditions: displacement of 125I-CXCL10 from membranes of CHO cells expressing human recombinant CXCR3-A.
Method: IC50 values were determined for the test compounds and used to explore the structure-activity relationships (SAR). […] This cell line was registered in Sanofi-Aventis cell line bank. […] Cell suspension was diluted with PBS and cells were collected with centrifugation at 230 g for 10 minutes at 10° C. with a Juan centrifuge. […] The supernatant was carefully collected and centrifuged at 100,000×g for 60 min at 4° with a Beckman Avanti J30 centrifuge. […] Protein concentration was determined with Bio-Rad protein assay (Cat No 500-0006). Membrane aliquots were stored at -80° C. […] The composition of the binding assay buffer was determined in a course of detailed optimization procedure. […] Binding reaction was initiated by adding of membranes (10-20 μg proteins, approximately 5×10^5 cell equivalents) to the reaction mixture. After 60 minutes of incubation at 25° C. the reaction was terminated by rapid filtration over GF/B glass fiber filters that were pre-soaked with 0.5% polyethyleneimine (Fluka Analytical, P3143) for 1 hour, using a Skatron cell harvester device. Filters then were washed with 8 ml of ice-cold wash buffer (modified binding buffer in which BSA was omitted and the concentration of NaCl was adjusted to 500 mM concentration). The radioactivity retained on the filters was measured by a Wizard 1470 Automatic Gamma counter. Test compounds were dissolved prior to the binding assay at a concentration of 10 mM in DMSO. Stock solutions were stored at -20° C. for not longer than 3 months. […] Before adding these solutions of test compound to the binding reaction mixture, an intermediate dilution procedure was applied, in which 30 μL of each solution sample was transferred into a dilution tube containing 970 μL of binding assay buffer. […] The IC50 values and Hill slopes for competition binding data were obtained using nonlinear four-parametric curve fitting method.

Sequence of human CXCR3-A receptor (P49682 whole entry): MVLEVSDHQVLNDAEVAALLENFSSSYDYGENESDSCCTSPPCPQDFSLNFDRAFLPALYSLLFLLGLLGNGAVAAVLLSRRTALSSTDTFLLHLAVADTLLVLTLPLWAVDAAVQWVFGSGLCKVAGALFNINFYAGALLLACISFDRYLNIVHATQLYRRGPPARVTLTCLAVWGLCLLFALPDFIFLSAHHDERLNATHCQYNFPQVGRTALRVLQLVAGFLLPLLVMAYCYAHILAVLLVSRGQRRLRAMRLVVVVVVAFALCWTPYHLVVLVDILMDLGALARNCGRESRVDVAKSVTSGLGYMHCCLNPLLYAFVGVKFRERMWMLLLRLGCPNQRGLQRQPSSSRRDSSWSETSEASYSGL

Compared with `CCOC(=O)[C@H]1CC[C@H](CN(Cc2ccc(OCCN3C(=O)CCC3=O)c(OC)c2)C(C)c2ccc3c(c2)CCO3)CC1` (relative stereo) [Example 1.1, trans-4-[([1-(2,3-Dihydro-benzofuran-5-yl)-ethyl]-{4-[2-(2,5-dioxo-pyrrolidin-1-yl)-ethoxy]-3-methoxy-benzyl}-amino)-methyl]-cyclohexanecarboxylic acid ethyl ester], `CCC(c1ccc2c(c1)CCO2)N(Cc1ccc(OCCN2C(=O)CCC2=O)c(OC)c1)C[C@H]1CC[C@H](C(=O)O)CC1` (stereo partly drawn) [Example 18, trans-4-[([1-(2,3-Dihydro-benzofuran-5-yl)-propyl]-{4-[2-(2,5-dioxo-pyrrolidin-1-yl)-ethoxy]-3-methoxy-benzyl}-amino)-methyl]-cyclohexanecarboxylic acid] is 2.8-fold lower in IC50: 177 nM for the first, 64 nM for the second. The second is the more potent here.

First: COc1cc(CN(C[C@H]2CC[C@H](C(=O)O)CC2)C2CCc3cc(Cl)ccc32)ccc1CCCN1C(=O)CCC1=O (stereo in doubt) [Example 45, trans-4-[(((R)-5-Chloro-indan-1-yl)-{4-[3-(2,5-dioxo-pyrrolidin-1-yl)-propyl]-3-methoxy-benzyl}-amino)-methyl]-cyclohexanecarboxylic acid]
Second: COc1cc(CN(C[C@H]2CC[C@H](C(=O)O)CC2)C2CCc3cc(Cl)ccc32)ccc1OCCN1C(=O)CCC1=O (stereo partly drawn) [Example 10, trans-4-[((5-Chloro-indan-1-yl)-{4-[2-(2,5-dioxo-pyrrolidin-1-yl)-ethoxy]-3-methoxy-benzyl}-amino)-methyl]-cyclohexane-carboxylic acid]
The IC50 of the first is 2.5-fold higher: 160 nM for the first, 64 nM for the second.

First: COc1cc(CN(C[C@H]2CC[C@H](C(=O)O)CC2)C2CCc3cc(Cl)ccc32)ccc1CCCN1C(=O)CCC1=O (stereo in doubt) [Example 46, trans-4-[(((S)-5-Chloro-indan-1-yl)-{4-[3-(2,5-dioxo-pyrrolidin-1-yl)-propyl]-3-methoxy-benzyl}-amino)-methyl]-cyclohexanecarboxylic acid]
Second: COc1cc(CN(C[C@H]2CC[C@H](C(=O)O)CC2)[C@@H]2CCc3cc(Cl)ccc32)ccc1OCCN1C(=O)CCC1=O [Example 11, trans-4-[(((R)-5-Chloro-indan-1-yl)-{4-[2-(2,5-dioxo-pyrrolidin-1-yl)-ethoxy]-3-methoxy-benzyl}-amino)-methyl]cyclohexanecarboxylic acid]
The IC50 of the first is 5-fold higher: 1000 nM for the first, 200 nM for the second.

`COc1cc(CN(C[C@H]2CC[C@H](C(=O)O)CC2)[C@@H](C)c2ccc(Cl)cc2)ccc1OCCN1C(=O)CCC1=O` [Example 5, trans-4-[([(S)-1-(4-Chloro-phenyl)-ethyl]-{4-[2-(2,5-dioxo-pyrrolidin-1-yl)-ethoxy]-3-methoxy-benzyl}-amino)-methyl]-cyclohexanecarboxylic acid] and `COc1cc(CN(C[C@H]2CC[C@H](C(=O)O)CC2)[C@H](C)c2ccc(Cl)cc2)ccc1OCCN1C(=O)CCC1=O` [Example 6, trans-4-[([(R)-1-(4-Chloro-phenyl)-ethyl]-{4-[2-(2,5-dioxo-pyrrolidin-1-yl)-ethoxy]-3-methoxy-benzyl}-amino)-methyl]-cyclohexanecarboxylic acid] are within 1.5-fold of each other in IC50: 19 nM for the first, 20 nM for the second.

First: Cc1cc(CN(C[C@H]2CC[C@H](C(=O)O)CC2)[C@@H](C)c2ccc(Cl)cc2)ccc1OCCN1C(=O)CCC1=O [Example 7, trans-4-[([(S)-1-(4-Chloro-phenyl)-ethyl]-{4-[2-(2,5-dioxo-pyrrolidin-1-yl)-ethoxy]-3-methyl-benzyl}-amino)-methyl]-cyclohexanecarboxylic acid]
Second: Cc1cc(CN(C[C@H]2CC[C@@H](C(=O)O)CC2)[C@@H](C)c2ccc(Cl)cc2)ccc1OCCN1C(=O)CCC1=O [Example 8, cis-4-[([(S)-1-(4-Chloro-phenyl)-ethyl]-{4-[2-(2,5-dioxo-pyrrolidin-1-yl)-ethoxy]-3-methyl-benzyl}-amino)-methyl]-cyclohexanecarboxylic acid]
The IC50 of the first is 100-fold lower: 38 nM for the first, 3810 nM for the second. The first is the more potent here.

Compared with `Cc1cc(CN(C[C@H]2CC[C@H](C(=O)O)CC2)[C@H](C)c2ccc(Cl)cc2)ccc1OCCN1C(=O)CCC1=O` [Example 9, trans-4-[([(R)-1-(4-Chloro-phenyl)-ethyl]-{4-[2-(2,5-dioxo-pyrrolidin-1-yl)-ethoxy]-3-methyl-benzyl}-amino)-methyl]-cyclohexanecarboxylic acid], `C[C@@H](c1ccc(Cl)cc1)N(Cc1ccc(OCCN2C(=O)CN(C)C2=O)c(Cl)c1)C[C@H]1CC[C@H](C(=O)O)CC1` [Example 23, trans-4-({{3-Chloro-4-[2-(3-methyl-2,5-dioxo-imidazolidin-1-yl)-ethoxy]-benzyl}-[(S)-1-(4-chloro-phenyl)-ethyl]-amino}-methyl)-cyclohexanecarboxylic acid] is 3.6-fold higher in IC50: 32 nM for the first, 116 nM for the second. The first is the more potent here.

First: COc1cc(CN(C[C@H]2CC[C@H](C(=O)O)CC2)[C@H]2CCc3cc(Cl)ccc32)ccc1OCCN1C(=O)CCC1=O [Example 12, trans-4-[(((S)-5-Chloro-indan-1-yl)-{4-[2-(2,5-dioxo-pyrrolidin-1-yl)-ethoxy]-3-methoxy-benzyl}-amino)-methyl]-cyclohexanecarboxylic acid]
Second: COc1cc(CN(C[C@H]2CC[C@@H](C(=O)O)CC2)C2CCc3cc(Cl)ccc32)ccc1OCCN1C(=O)CCC1=O (stereo partly drawn) [Example 13, cis-4-[((5-Chloro-indan-1-yl)-{4-[2-(2,5-dioxo-pyrrolidin-1-yl)-ethoxy]-3-methoxy-benzyl}-amino)-methyl]-cyclohexane-carboxylic acid]
The IC50 of the first is 130-fold lower: 13 nM for the first, 1660 nM for the second.

Compared with `COc1cc(CN(C[C@H]2CC[C@H](C(=O)O)CC2)[C@H]2CCc3c2ccc(Cl)c3Cl)ccc1OCCN1C(=O)CCC1=O` [Example 14, trans-4-[(((S)-4,5-Dichloro-indan-1-yl)-{4-[2-(2,5-dioxo-pyrrolidin-1-yl)-ethoxy]-3-methoxy-benzyl}-amino)-methyl]-cyclohexanecarboxylic acid hydrochloride], `O=C1CCC(=O)N1CCOc1ccc(CN(C[C@H]2CC[C@H](C(=O)O)CC2)C2CCc3cc(Cl)ccc32)cc1Cl` (stereo partly drawn) [Example 21, trans-4-{[{3-Chloro-4-[2-(2,5-dioxo-pyrrolidin-1-yl)-ethoxy]-benzyl}-(5-chloro-indan-1-yl)-amino]-methyl}-cyclohexanecarboxylic acid] is 25-fold higher in IC50: 25 nM for the first, 633 nM for the second.

`COc1cc(CN(C[C@H]2CC[C@H](C(=O)O)CC2)C(C)c2ccc3c(c2)CCO3)ccc1OCCN1C(=O)CSC1=O` (stereo partly drawn) [Example 15, trans-4-[([1-(2,3-Dihydro-benzofuran-5-yl)-ethyl]-{4-[2-(2,4-dioxo-thiazolidin-3-yl)-ethoxy]-3-methoxy-benzyl}-amino)-methyl]-cyclohexanecarboxylic acid] and `COc1cc(CN(C[C@H]2CC[C@H](C(=O)O)CC2)C(C)c2ccc3c(c2)CCO3)ccc1OCCN1C(=O)COC1=O` (stereo partly drawn) [Example 19, trans-4-[([1-(2,3-Dihydro-benzofuran-5-yl)-ethyl]-{4-[2-(2,4-dioxo-oxazolidin-3-yl)-ethoxy]-3-methoxy-benzyl}-amino)-methyl]-cyclohexanecarboxylic acid] are within 1.5-fold of each other in IC50: 37 nM for the first, 55 nM for the second.

`CC(c1ccc2c(c1)CCO2)N(Cc1ccc(OCCN2C(=O)CCC2=O)c(Cl)c1)C[C@H]1CC[C@H](C(=O)O)CC1` (stereo partly drawn) [Example 16, trans-4-({{3-Chloro-4-[2-(2,5-dioxo-pyrrolidin-1-yl)-ethoxy]-benzyl}-[1-(2,3-dihydro-benzofuran-5-yl)-ethyl]-amino}-methyl)-cyclohexanecarboxylic acid] and `Cc1cc(CN(C[C@H]2CC[C@H](C(=O)O)CC2)C(C)c2ccc3c(c2)CCO3)ccc1OCCN1C(=O)CCC1=O` (stereo partly drawn) [Example 17, trans-4-[([1-(2,3-Dihydro-benzofuran-5-yl)-ethyl]-{4-[2-(2,5-dioxo-pyrrolidin-1-yl)-ethoxy]-3-methyl-benzyl}-amino)-methyl]-cyclohexanecarboxylic acid] are within 1.5-fold of each other in IC50: 35 nM for the first, 44 nM for the second.

Going from `CC(c1ccc2c(c1)CCO2)N(Cc1ccc(OCCN2C(=O)CN(C)C2=O)c(Cl)c1)C[C@H]1CC[C@H](C(=O)O)CC1` (stereo partly drawn) [Example 22, trans-4-({{3-Chloro-4-[2-(3-methyl-2,5-dioxo-imidazolidin-1-yl)-ethoxy]-benzyl}-[1-(2,3-dihydro-benzofuran-5-yl)-ethyl]-amino}-methyl)-cyclohexanecarboxylic acid] to `COc1cc(CN(C[C@H]2CC[C@H](C(=O)O)CC2)C(C)c2ccc(Cl)c(C)c2)ccc1OCCN1C(=O)CCC1=O` (stereo partly drawn) [Example 25, trans-4-[([1-(4-Chloro-3-methyl-phenyl)-ethyl]-{4-[2-(2,5-dioxo-pyrrolidin-1-yl)-ethoxy]-3-methoxy-benzyl}-amino)-methyl]-cyclohexanecarboxylic acid], the IC50 falls from 112 nM to 25 nM (4.5-fold). The second is the more potent here.

For `COc1cc(CN(C[C@H]2CC[C@H](C(=O)O)CC2)C2CCc3cc(Cl)ccc32)ccc1OCCN1C(=O)CSC1=O` (stereo partly drawn) [Example 24, trans-4-[((5-Chloro-indan-1-yl)-{4-[2-(2,4-dioxo-thiazolidin-3-yl)-ethoxy]-3-methoxy-benzyl}-amino)-methyl]-cyclohexanecarboxylic acid], the IC50 was 58 nM.
